Experimental data as given in US4374840A, “Certain phenyl or pyridyl-propanol-amines containing alkyl-nitrate moieties” (Kowa Company, Ltd., priority 1980, dated 1983).

What was measured:
[1] = Test [III]: left ventricular end diastolic pressure (LVEDP) in anesthetized dogs; assay type: in vivo; details: anesthetized mongrel dogs, 20 μg/kg i.v.
Method: (§1) Mongrel dogs were anesthetized by intravenous administration of 30 mg/kg of pentobarbital, and examined under artifical respiration for the following items.
(1) Left ventricular end diastolic pressure (LVEDP)
Measured by advancing a catheter transducer to the left ventricle.
(§2) Dose and Method of Administration:
(§3) Each of the compounds shown in Tables 2 to 4 was dissolved in 0.1 N hydrochloric acid, and intravenously administered in a dose of 20 μg/kg.

[2] = Test [I]: blood pressure in pentobarbital-anesthetized dogs, i.v.; assay type: in vivo; design: key to duration of hypotensive action (mark (*): especially longlasting): +: a reduction of less than 20%; ++: a reduction of 20 to 50%; +++: a reduction of more than 50%; (*): The hypotensive action is especially longlasting; details: anesthetized adult dogs, 20 μg/kg i.v.; for inhibition in vivo at 0.02 mg/kg: Canis lupus familiaris, iv, read-out: Reduction in blood pressure
Method: (§4) Adult dogs were anesthetized by intravenous administration of 30 mg/kg of pentobarbital, and examined under artificial respiration for the action of the compound of this invention on blood pressure and heart rate.
A catheter was inserted into the femoral artery, and connected to a pressure transducer for measurement of the blood pressure.
as §2
(§5) The test drug was dissolved in 0.1 N hydrochloric acid, and administered intravenously in a dose of 20 μg/kg.
(§6) The numbered compounds in the following tables correspond to the compounds obtained in the correspondingly numbered Examples given hereinbelow.

[3] = Test [I]: heart rate in pentobarbital-anesthetized dogs, i.v.; assay type: in vivo; details: Canis lupus familiaris, iv; anesthetized adult dogs, 20 μg/kg i.v.; read-out: Reduction in heart rate
Method: as §4
Measured by pulse pressure changes.
as §2, §5, §6

[4] = Test [III]: coronary blood flow in anesthetized dogs; assay type: in vivo; details: anesthetized mongrel dogs, 20 μg/kg i.v.
Method: as §1
Measured by setting an electro magnetic flow meter probe in the left circumflex branch.
as §2, §3

[5] = system: isolated atrial muscle of a guinea pig; assay: Test [II]: antagonistic action against isoproterenol on isolated atrial muscle (β-blocking action); details: 10^-9 to 4×10^-4 mole, control drug propranolol hydrochloride
Method: The isolated atrial muscle of a guinea pig was used, and its contractile force and heart rate were recorded. Thus, the antagonistic action of the test drug against isoproterenol was examined. The drug was used in a concentration of 10^-9 to 4×10^-4 mole. As a control drug, propranolol hydrochloride was used.

[6] = Test [III]: common carotid blood flow in anesthetized dogs; assay type: in vivo; details: anesthetized mongrel dogs, 20 μg/kg i.v.
Method: as §1
(3) Common carotid blood flow
Measured by setting an electromagnetic flow probe at the common carotid artery.
as §2, §3

Row | SMILES | Decrease rate (%) in LVEDP [1] | inhibition in vivo at 0.02 mg/kg [2] | inhibition in vivo at 0.02 mg/kg [3] | Increase rate (%) in coronary flow [4] | antagonistic action against isoproterenol, compared with propranolol hydrochloride [5] | other results
1 | CC(C)NCC(O)COc1cccc(OCCO[N+](=O)[O-])c1 (stereo not shown) [Compound 1, 1-iso-Propylamino-3-[3-(2-nitratoethoxy)phenoxy]-2-propanol] | .dwnarw..dwnarw..dwnarw. (a decrease of more than 40%) |  |  |  |  | 
2 | CC(C)NCC(O)COc1ccccc1OCCO[N+](=O)[O-] (stereo not shown) [Compound 2, 1-iso-Propylamino-3-[2-(2-nitrotoethoxy)phenoxy]-2-propanol] |  | 20 to 50% | 20 to 50% | .uparw..uparw. (an increase of more than 30%) |  | 
3 | COc1ccc(OCC(O)CNC(C)C)cc1OCCO[N+](=O)[O-] (stereo not shown) [Compound 3, 1-iso-Propylamino-3-[[4-methoxy-3-(2-nitratoethoxy)]phenoxy]-2-propanol] |  |  |  |  | same degree of action as the control drug | 
4 | COc1ccc(C(O)CNC(C)CCc2ccccc2)cc1OCCO[N+](=O)[O-] (stereo not shown) [Compound 4, 1-[4-methoxy-3-(2-nitratoethoxy)phenyl]-2-(1-methyl-3-phenylpropyl)aminoethanol] |  |  |  |  | same degree of action as the control drug | 
5 | CC(C)NCC(O)COc1ccc(OCCO[N+](=O)[O-])cc1 (stereo not shown) [Compound 6, 1-iso-Propylamino-3-[4-(2-nitratoethoxy)phenoxy]-2-propanol] | .dwnarw..dwnarw. (a decrease of 20 to 40%) | > 50% | > 50% | .uparw..uparw. (an increase of more than 30%) |  | duration of hypotensive action (mark (*): especially longlasting) [2]: (*); Increase rate (%) in flow in the common carotid artery [6]: .uparw..uparw. (an increase of more than 30%)
6 | CC(C)NCC(O)COc1ccc(OCCCO[N+](=O)[O-])cc1 (stereo not shown) [Compound 7, 1-iso-Propylamino-3-[4-(3-nitratopropoxy)phenoxy]-2-propanol] | .dwnarw..dwnarw..dwnarw. (a decrease of more than 40%) | 20 to 50% | > 50% | .uparw..uparw. (an increase of more than 30%) |  | Increase rate (%) in flow in the common carotid artery [6]: .uparw..uparw. (an increase of more than 30%)
7 | CC(C)NCC(O)COc1ccccc1OCCCO[N+](=O)[O-] (stereo not shown) [Compound 8, 1-iso-Propylamino-3-[2-(3-nitratopropoxy)phenoxy]-2-propanol] |  |  |  |  | same degree of action as the control drug | 
8 | COc1ccc(OCCO[N+](=O)[O-])cc1OCC(O)CNC(C)C (stereo not shown) [Compound 13, 1-iso-Propylamino-3-[2-methoxy-5-(2-nitratoethoxy)phenoxy]-2-propanol] |  |  |  |  | same degree of action as the control drug | 
9 | CC(CCc1ccccc1)NCC(O)c1ccccc1OCCO[N+](=O)[O-] (stereo not shown) [Compound 14, 1-[2-(2-Nitratoethoxy)phenyl]-2-(1-methyl-3-phenylpropyl)aminoethanol] |  |  |  |  | same degree of action as the control drug | 
10 | CC(C)NCC(O)COc1cccc(OCCO[N+](=O)[O-])n1 (stereo not shown) [Compound 15, 1-iso-Propylamino-3-[6-(2-nitratoethoxy)-2-pyridyloxy]-2-propanol] |  |  |  |  | same degree of action as the control drug | 
11 | COc1cc(OCCO[N+](=O)[O-])ccc1OCC(O)CNC(C)C (stereo not shown) [Compound 17, 1-iso-Propylamino-3-[2-methoxy-4-(2-nitratoethoxy)phenoxy]-2-propanol] |  |  |  |  | same degree of action as the control drug | 
12 | C=CCOc1cc(OCCO[N+](=O)[O-])ccc1OCC(O)CNC(C)C (stereo not shown) [Compound 23, 1-iso-Propylamino-3-[2-allyloxy-4-(2-nitratoethoxy)phenoxy]-2-propanol] | .dwnarw..dwnarw. (a decrease of 20 to 40%) | 20 to 50% | > 50% |  |  | 
13 | CCC(CC)NCC(O)COc1cccc(OCCCO[N+](=O)[O-])c1 (stereo not shown) [Compound 26, 1-(1-Ethylpropyl)amino-3-[3-(3-nitratopropoxy)phenoxy]-2-propanol] |  |  |  | .uparw. (an increase of 30% or less) |  | Increase rate (%) in flow in the common carotid artery [6]: .uparw. (an increase of 30% or less)
14 | CC(C)NCC(O)COc1ccccc1OCCCCCCO[N+](=O)[O-] (stereo not shown) [Compound 32, 1-iso-Propylamino-3-[2-(6-nitratohexyloxy)phenoxy]-2-propanol] |  |  |  | .uparw. (an increase of 30% or less) |  | 
15 | C=CCOc1cc(OCCO[N+](=O)[O-])c(Cl)cc1OCC(O)CNC(C)C (stereo not shown) [Compound 33, 1-iso-Propylamino-3-[2-allyloxy-5-chloro-4-(2-nitratoethoxy)phenoxy]-2-propanol] | .dwnarw. (a decrease of less than 20%) | 20 to 50% | 20 to 50% | .uparw. (an increase of 30% or less) |  | duration of hypotensive action (mark (*): especially longlasting) [2]: (*); Increase rate (%) in flow in the common carotid artery [6]: .uparw. (an increase of 30% or less)
16 | CC(C)NCC(O)COc1ccc(OCCO[N+](=O)[O-])c(Cl)c1 (stereo not shown) [Compound 34, 1-iso-Propylamino-3-[3-chloro-4-(2-nitratoethoxy)phenoxy]-2-propanol] |  |  |  | .uparw. (an increase of 30% or less) |  | Increase rate (%) in flow in the common carotid artery [6]: .uparw. (an increase of 30% or less)
17 | CC(C)NCC(O)COc1ccc(OCCO[N+](=O)[O-])cc1OCCO[N+](=O)[O-] (stereo not shown) [Compound 50, 1-iso-Propylamino-3-[2,4-di-(2-nitratoethoxy)phenoxy]-2-propanol] | .dwnarw..dwnarw. (a decrease of 20 to 40%) | > 50% | > 50% |  |  | 
18 | CC(C)NCC(O)COc1ccc(OCCO[N+](=O)[O-])c(C(N)=O)c1 (stereo not shown) [Compound 55, 1-iso-Propylamino-3-[3-carbamoyl-4-(2-nitratoethoxy)phenoxy]-2-propanol] |  | 20 to 50% | > 50% |  |  | 
19 | CC(C)NCC(O)COc1ccc(CCCO[N+](=O)[O-])cc1 (stereo not shown) [Compound 61, 1-iso-Propylamino-3-[4-(3-nitratopropyl)phenoxy]-2-propanol] |  | > 50% | > 50% |  |  | Increase rate (%) in flow in the common carotid artery [6]: .uparw. (an increase of 30% or less)
20 | CC(C)NCC(O)COc1ccc(CCCCO[N+](=O)[O-])cc1 (stereo not shown) [Compound 62, 1-iso-Propylamino-3-[4-(4-nitratobutyl)phenoxy]-2-propanol] | .dwnarw. (a decrease of less than 20%) | > 50% | 20 to 50% |  |  | 
21 | CC(C)NCC(O)COc1c(OCCO[N+](=O)[O-])cccc1OCCO[N+](=O)[O-] (stereo not shown) [Compound 63, 1-iso-Propylamino-3-[2,6-di(2-nitratoethoxy)phenoxy]-2-propanol] |  | > 50% | > 50% |  |  | 
